Source: patent publication US11291666B2, “Uses” (INTRA-CELLULAR THERAPIES, INC., priority 2016, dated 2022)
Entries after “also recorded” stand apart in the source; their conditions may differ.

Experiments:
BV2 cells [1] = assay: RNAseq analysis of LPS-stimulated BV2 cells, differentially expressed transcripts; assay type: cell-based, mouse; conditions: for genes affected by both Compound 214 and Rolipram / genes significantly affected by this compound but not the other (Compound 214 / Rolipram) / overlap of genes affected by Compound 214 and Rolipram: LPS-stimulated BV2 cells
Description: (§1) The test compound is added first, the LPS is added one hour later, and the cells and/or media are harvested at five hours from commencement of the experiment.
RNASeq: Flashfreeze BV2cells, isolate RNA, prepare a library using polyA selection, and conduct 1×50 bp single read sequencing on the Illumina HiSeq 2500 in High Output mode (using V4 chemistry). Genes are mapped to reference genome (GRCm38) using CLC Genomics Server. Number of reads per sample average ˜17 million. Differential gene expression analysis is performed using DESeq2software (Bioconductor.org). Differentially expressed genes (p<0.01, Waldtest) are reported as log 2(fold change).

BV2 cells [2] = assay: Quantitative PCR of inflammatory cytokine mRNA in LPS-treated BV2 cells; assay type: cell-based, mouse
Description: Levels of IL1β are measured using quantitative PCR of IL1β mRNA. IL1β is considered a marker of inflammation. Results are depicted in FIG. 2 (RQ: relative quantification of changes in gene expression in treated versus control samples; ***p<0.01 vs control, √p<0.01 vs LPS alone; ANOVA with Newman-Keuls post-hoc test).
BV2 cells are pretreated with compound, ITI-214 or rolipram, a PDE4 inhibitor, then stimulated with 50 ng/ml LPS for 4 hours. Expression levels of TNF, IL1β, Ccl2, and IL6 are measured. Normalized mRNA levels are shown as change from vehicle (ΔΔCt) and compared using a one-way ANOVA. […] The mRNA transcripts for TNF, IL1β, and Ccl2—three of the four cytokines studied in vivo—were elevated in BV2 cells treated with 50 ng/ml LPS.
as §1
(§2) RTqPCR: RNA from BV2 cells purified using RNeasyKit (Qiagen) and from mouse tissue using TRIzol (Ambion). TaqMan primer-probe assays from Thermo Fisher. mRNA levels for all conditions are normalized to GAPDH and to vehicle control (ΔΔCt). Data are analyzed statistically using one-way ANOVA with the Bonferroni post-test for multiple comparisons.

[3] = test system: IL1β mRNA in the hippocampus; assay: IL1β expression in hippocampus in vivo after LPS (quantitative PCR); conditions: mice; LPS 2 mg/kg s.c.; 10 mg/kg i.p.; six hours post injection; FIG. 3
Description: At six hours post injection, levels of IL1β in the hippocampus are measured via quantitative PCR of IL1β mRNA. IL1β is considered a marker of inflammation. Data are presented in FIG. 3 (***p<0.01 vs LPS alone, ANOVA with Newman-Keuls post-hoc test).

BV2 cells [4] = assay: LPS-induced TNFα release from BV2 cells (ELISA); assay type: cell-based, mouse; conditions: 50 ng/ml LPS stimulation, FIG. 5
Description: TNFα release: TNFα levels are measured in BV2 conditioned media and normalized to cell protein levels. Inhibition of LPS-induced TNFα release from BV2 cells is depicted in FIG. 5.
as §1
TNFαELISA: Thermo Fisher mouse TNFα colorimetric, sandwich ELISA kit. Interpolatee values from standard curve. Dose response is fit to a 4-parameter logistic curve.

[5] = test system: inflammatory gene expression in mouse striatum; assay: Inflammatory gene expression in mouse striatum after LPS (Q-PCR); assay type: in vivo
Description: as §2
The results are based upon an evaluation of samples using Q-PCR.
Data from a further experiment measuring the effect of PDE1 inhibition on inflammatory gene expression in mouse striatum is depicted in FIG. 7. […] Striatal tissue is isolated and flash frozen, and RNA is extracted. Measurements from RT-qPCR are shown as log 2 fold change (2ΔΔCt). n=4 *p<0.05, **p<0.01, ***p<0.001, ****p<0.0001.
Data from yet another experiment measuring the effect of PDE1 inhibition on inflammatory gene expression in mouse striatum is depicted in FIG. 8. […] Striatal tissue is analyzed for mRNA levels of TNF, IL1β, Ccl2, and IL6. Expression levels are shown as change in Q-PCR signal from vehicle (ΔΔCt) and compared using an ANOVA. * p<0.05, **p<0.01, ***p<0.001.

BV2 cells [6] = assay: RT-qPCR of selected genes in BV2 cells with ITI-214, cyclase activators and PKA/PKG inhibitors; assay type: cell-based, mouse
Description: In a further experiment a group of genes is selected for further analysis by RT-qPCR. For comparison, genes are analyzed which have been implicated in the scientific literature in microglial and astrocyte activation, including genes in the complement pathway.
All sample values are normalized to an average of 3 reference genes and to vehicle control (ΔΔCt). The error bars represent the mean+/−SEM (n=4). From left to right, for each cytokine grouping, the bars indicate samples treated with: LPS, 0.1 μM 214+LPS, 0.4 μM 214+LPS, 1.1 μM 214+LPS, 3.3 μM 214+LPS, 10 μM 214+LPS, for each particular gene shown on the X-axis. Significant changes between LPS and 10 μM ITI-214+LPS (A) and Vehicle and 10 μM ITI-214 (B) are marked on the X-axis gene names and are calculated using a one-way ANOVA. * p<0.05, **p<0.01, ***p<0.001, ****p<0.0001.
In one particular experiment, BV2 cells are treated with 10 μM forskolin (FSK) to activate adenylyl cyclases, 5 μM DEANO to activate soluble guanylyl cyclase, or 100 nM atrial natriuretic peptide (ANP) to activate particulate guanylyl cyclase. […] Upon combining forskolin with ITI-214 some of the effects of ITI-214 inhibition can be increased. […] However, LIF reverts to LPS-level expression when forskolin is added.
Note that gene expression levels upon addition of PKA or PKG inhibitor to 10 μM ITI-214 are on the order of those relative to LPS treatment alone were reduced to levels equivalent to 3.3 μM ITI-214.

BV2 cells [7] = assay: Quantitative PCR of inflammatory cytokine mRNA in LPS-treated BV2 cells; assay type: cell-based, mouse; conditions: LPS 10 microgram/ml, Compound 214 10 microgram/ml, FIG. 2
[8] = BV2 cells, 50 ng/ml LPS for 4 hours, 10 μM, FIG. 4b
[9] = BV2 cells, Compound 214 at 10 μM, FIG. 4a
[10] = Striatum Mouse + LPS, initial results
[11] = adult mice, 10 mg/kg i.p., 500 μg/kg LPS s.c. for 2 hours, FIG. 8
[12] = mouse striatum, 10 mg/kg i.p., LPS 500 μg/kg s.c., two hours, FIG. 7

How did the “mRNA transcripts decreased in the presence of LPS + compound vs. LPS alone” value (BV2 cells [1]; BV2 cells, RNAseq) turn out when `CN1C(=O)c2c(nn(Cc3ccc(-c4cccc(F)n4)cc3)c2Nc2ccccc2)N2C1=N[C@@H]1CCC[C@@H]12` [Compound 214] was run?
Its value is 138 transcripts.

And the “overlap between the Compound 214 and rolipram sets of decreased transcripts” value (BV2 cells [1]; BV2 cells, RNAseq)?
Its value is 48 transcripts.

What about the “overlap between the Compound 214 and rolipram sets of elevated transcripts” value (BV2 cells [1]; BV2 cells, RNAseq) of the same compound?
Its value is 45 transcripts.

What about the “transcripts elevated in the presence of LPS + compound vs. LPS alone” value (BV2 cells [1]; BV2 cells, RNAseq) of the same compound?
The value was 149 transcripts.

And the “genes affected by both Compound 214 and Rolipram” value (BV2 cells [1]; further RNASeq analysis)?
Its value is 114 genes.

And the “genes significantly affected by this compound but not the other (Compound 214 / Rolipram)” value (BV2 cells [1]; further RNASeq analysis)?
Its value is 293 genes.

What about the “overlap of genes affected by Compound 214 and Rolipram” value (BV2 cells [1]; further RNASeq analysis) of the same compound?
Its value is “about 17%”.

And the “genes affected by both Compound 214 and Rolipram” value (BV2 cells [1]; still a further experiment)?
The value was 683 genes.

What about the “genes significantly affected by this compound but not the other (Compound 214 / Rolipram)” value (BV2 cells [1]; still a further experiment) of the same compound?
The value was 1240 genes.

And the “overlap of genes affected by Compound 214 and Rolipram” value (BV2 cells [1]; still a further experiment)?
Its value is “about half”.

What about the “Chemokine (C-C) motif Ligand 2 expression (Q-PCR)” value (BV2 cells [2]; BV2 + LPS, initial results) of the same compound?
Its value is “Down”.

And the “Interleukin 1 beta expression (Q-PCR)” value (BV2 cells [2]; BV2 + LPS, initial results)?
Its value is “Down”.

What about the “Tumor necrosis factor expression (Q-PCR)” value (BV2 cells [2]; BV2 + LPS, initial results) of the same compound?
Its value is “Down”.

And the “Ccl2 mRNA signal” value (BV2 cells [2]; [8])?
Its value is “significantly decreased”.

And the “IL1β mRNA signal” value (BV2 cells [2]; [8])?
The value was “trended downward”.

What about the “TNF mRNA signal” value (BV2 cells [2]; [8]) of the same compound?
The value was “significantly decreased”.

And the “LPS-induced increase in expression of Ccl2” value (BV2 cells [2]; [9])?
Its value is “significantly reduces”.

And the “LPS-induced increase in expression of IL1β” value (BV2 cells [2]; [9])?
Its value is “significantly reduces”.

What about the “LPS-induced increase in expression of TNFα” value (BV2 cells [2]; [9]) of the same compound?
Its value is “significantly reduces”.

What about the “LPS-induced changes in proinflammatory markers” value (BV2 cells [2]; BV2 cells, separate experiment, FIG. 4b, 50 ng/ml LPS for 4 hours) of the same compound?
Its value is “greatly reduces or blunts”.

And the “LPS-induced increase in expression of IL1β in the hippocampus (mRNA)” value [3]?
The value was “suppresses; also recorded: significantly blunts”.

And the “LPS-induced TNFα release” value (BV2 cells [4])?
The value was “dose-dependent inhibition”.

And the “Chemokine (C-C) motif Ligand 2 expression (Q-PCR)” value [5, 10]?
The value was “Down”.

What about the “Oncostatin M expression (Q-PCR)” value [5, 10] of the same compound?
The value was “Down”.

What about the “expression of Ccl2 mRNA in striatum” value [5, 11] of the same compound?
The value was “attenuates”.

And the “expression of TNF mRNA in striatum” value [5, 11]?
The value was “attenuates”.

And the “levels of IL1-beta mRNA in striatum” value [5, 11]?
Its value is “trended to lower levels”.

And the “levels of IL6 mRNA in striatum” value [5, 11]?
Its value is “trended to lower levels”.

What about the “LPS stimulation of the pro-inflammatory cytokines TNFα, Ccl2, IL-1β, and IL-6” value [5, 12] of the same compound?
The value was “inhibits”.

And the “expression of the anti-inflammatory cytokine IL-10” value [5, 12]?
The value was “significantly enhance”.

What about the “LPS-induced inflammatory gene expression changes in mice” value ([5]; striatal tissue, 10 mg/kg i.p., 2 hours, FIG. 8) of the same compound?
The value was “prevents”.

What about the “induction of Cx3cr1 by LPS” value (BV2 cells [6]) of the same compound?
Its value is “significantly reduced”.

And the “modulation of transcriptional responses to LPS” value (BV2 cells [6]; 50 ng/ml LPS, 0.1-10 μM, FIG. 10a)?
Its value is “dose dependent”.

What about the “ITI-214 responsive transcripts (Cx3cr1, Csf2, TNF, Cc14, MAPKAPK2, PtpN6, Ccr1) with concomitant forskolin” value (BV2 cells [6]; LPS, 10 μM forskolin, FIG. 11a) of the same compound?
Its value is “further down- or up-modulated”.

And the “impact of ITI-214 on addition of PKA inhibitor cAMPS-Rp or PKG inhibitor -8-Br-PET-cGMPS” value (BV2 cells [6]; LPS, inhibitors 100 μM, FIG. 11b)?
The value was “Moderate reduction”.

What about the “basal expression of Cx3cr1” value (BV2 cells [6]; in the absence of LPS) of the same compound?
Its value is “significantly reduced”.

What about the LIF expression (BV2 cells [6]; with LPS, FIG. 11a) of the same compound?
The LIF expression was “further increased”.

What about the “LPS-induced increase in expression of IL1β (mRNA, quantitative PCR)” value (BV2 cells [7]) of the same compound?
The value was “suppresses; also recorded: significantly blunts”.
